Columns and labels:
[1] = tested on: HEK 293T transfected with plasmids containing TDP-43 Q331K mutation; assay: HEK/TDP Survival assay (Cell-Titer-Glo, 48 hrs, maximal effect of rescue); format: cell-based; conditions: Homo sapiens, HEK 293T with TDP-43 Q331K, (n) in brackets
Protocol: HEK/TDP Survival assay: Immortalized human embryonic kidney 293T (HEK 293T) were transfected with plasmids containing TDP-43 Q331K mutation, resulting in an increase in cell death that is biologically relevant to ALS patients. Cell death is measured as reductions in the amount of ATP, an indicator of metabolically active cells, that is quantified by a luminescence Cell-Titer-Glo® (CTG) reagent. Compounds are evaluated in this model for changes in CTG compared to a no treatment group. Increased signal indicates improved survival (rescue) and decreased signal indicates decreased survival.
Cell rescue was measured in a 96-well format with eight different concentrations of the test compound over 48 hours (hrs) with 6 replicates. The Promega Cell-Titer-Glo® Luminescent Cell Viability Assay was used to quantify ATP, an indicator of metabolically active cells (see protocol: https://www.promega.com/-/media/files/resources/protocols/technical-manuals/101/celltiterglo-2-0-assay-protocol.pdf?la=en). The luminescence signal was detected using the PerkinElmer EnVision or Molecular Devices SpectraMax.
The effect of a compound at a given dose on cell viability was determined using a three step procedure. First, Hedge's g for the Cell Titer-Glo luminescence values using six untreated wells on every plate as a control was calculated. […] Finally, values from all compound-dose pairs were corrected for multiple hypothesis testing using the Empirical Bayes framework of Stephens, M. (False discovery rates: a new deal, Biostatistics, 18 [2], 2017, 275-294) yielding credible intervals for the measured effect and associated s values.
Briefly, this method computes a local false sign rate for each experiment. Analogous to the local false discovery rate of Efron, B. (Size, power and false discovery rates, Ann. Statist. 35 [4], 2007, 1351-1377) this value measures the confidence in the sign of each effect (rather than confidence in each effect being non-zero). The s values reported in the previous figures are the expected fraction of errors if estimating the sign of all effects with greater absolute local false sign rate, defined in analogy to the q value of Storey, JD (The positive false discovery rate: a Bayesian interpretation and the q-value, Ann. Statist. 31 [6] 2003, 2013-2035).
Drugs that yielded signed log s values greater than 3 were considered hits. This threshold was determined by a separate calibration experiment in which Cell Titer-Glo® was measured in blank plates consisting of untreated cells to assess the noise inherent in the assay. Data are presented as the maximal effect of rescue obtained from the dose-response curve.

[2] = target: T1, Full length human recombinant PIKFYVE (Homo sapiens, UniProt Q9Y2I7); assay: Inhibition of PIKfyve (microfluidic electrophoresis kinase assay, PI3P/PS substrate); format: biochemical; conditions: 12 concentrations
T1 construct: Full length human recombinant PIKFYVE; purchased Carna Biosciences (Kobe, Japan); host or cells: baculovirus expression system
T1 sequence (Q9Y2I7 whole entry): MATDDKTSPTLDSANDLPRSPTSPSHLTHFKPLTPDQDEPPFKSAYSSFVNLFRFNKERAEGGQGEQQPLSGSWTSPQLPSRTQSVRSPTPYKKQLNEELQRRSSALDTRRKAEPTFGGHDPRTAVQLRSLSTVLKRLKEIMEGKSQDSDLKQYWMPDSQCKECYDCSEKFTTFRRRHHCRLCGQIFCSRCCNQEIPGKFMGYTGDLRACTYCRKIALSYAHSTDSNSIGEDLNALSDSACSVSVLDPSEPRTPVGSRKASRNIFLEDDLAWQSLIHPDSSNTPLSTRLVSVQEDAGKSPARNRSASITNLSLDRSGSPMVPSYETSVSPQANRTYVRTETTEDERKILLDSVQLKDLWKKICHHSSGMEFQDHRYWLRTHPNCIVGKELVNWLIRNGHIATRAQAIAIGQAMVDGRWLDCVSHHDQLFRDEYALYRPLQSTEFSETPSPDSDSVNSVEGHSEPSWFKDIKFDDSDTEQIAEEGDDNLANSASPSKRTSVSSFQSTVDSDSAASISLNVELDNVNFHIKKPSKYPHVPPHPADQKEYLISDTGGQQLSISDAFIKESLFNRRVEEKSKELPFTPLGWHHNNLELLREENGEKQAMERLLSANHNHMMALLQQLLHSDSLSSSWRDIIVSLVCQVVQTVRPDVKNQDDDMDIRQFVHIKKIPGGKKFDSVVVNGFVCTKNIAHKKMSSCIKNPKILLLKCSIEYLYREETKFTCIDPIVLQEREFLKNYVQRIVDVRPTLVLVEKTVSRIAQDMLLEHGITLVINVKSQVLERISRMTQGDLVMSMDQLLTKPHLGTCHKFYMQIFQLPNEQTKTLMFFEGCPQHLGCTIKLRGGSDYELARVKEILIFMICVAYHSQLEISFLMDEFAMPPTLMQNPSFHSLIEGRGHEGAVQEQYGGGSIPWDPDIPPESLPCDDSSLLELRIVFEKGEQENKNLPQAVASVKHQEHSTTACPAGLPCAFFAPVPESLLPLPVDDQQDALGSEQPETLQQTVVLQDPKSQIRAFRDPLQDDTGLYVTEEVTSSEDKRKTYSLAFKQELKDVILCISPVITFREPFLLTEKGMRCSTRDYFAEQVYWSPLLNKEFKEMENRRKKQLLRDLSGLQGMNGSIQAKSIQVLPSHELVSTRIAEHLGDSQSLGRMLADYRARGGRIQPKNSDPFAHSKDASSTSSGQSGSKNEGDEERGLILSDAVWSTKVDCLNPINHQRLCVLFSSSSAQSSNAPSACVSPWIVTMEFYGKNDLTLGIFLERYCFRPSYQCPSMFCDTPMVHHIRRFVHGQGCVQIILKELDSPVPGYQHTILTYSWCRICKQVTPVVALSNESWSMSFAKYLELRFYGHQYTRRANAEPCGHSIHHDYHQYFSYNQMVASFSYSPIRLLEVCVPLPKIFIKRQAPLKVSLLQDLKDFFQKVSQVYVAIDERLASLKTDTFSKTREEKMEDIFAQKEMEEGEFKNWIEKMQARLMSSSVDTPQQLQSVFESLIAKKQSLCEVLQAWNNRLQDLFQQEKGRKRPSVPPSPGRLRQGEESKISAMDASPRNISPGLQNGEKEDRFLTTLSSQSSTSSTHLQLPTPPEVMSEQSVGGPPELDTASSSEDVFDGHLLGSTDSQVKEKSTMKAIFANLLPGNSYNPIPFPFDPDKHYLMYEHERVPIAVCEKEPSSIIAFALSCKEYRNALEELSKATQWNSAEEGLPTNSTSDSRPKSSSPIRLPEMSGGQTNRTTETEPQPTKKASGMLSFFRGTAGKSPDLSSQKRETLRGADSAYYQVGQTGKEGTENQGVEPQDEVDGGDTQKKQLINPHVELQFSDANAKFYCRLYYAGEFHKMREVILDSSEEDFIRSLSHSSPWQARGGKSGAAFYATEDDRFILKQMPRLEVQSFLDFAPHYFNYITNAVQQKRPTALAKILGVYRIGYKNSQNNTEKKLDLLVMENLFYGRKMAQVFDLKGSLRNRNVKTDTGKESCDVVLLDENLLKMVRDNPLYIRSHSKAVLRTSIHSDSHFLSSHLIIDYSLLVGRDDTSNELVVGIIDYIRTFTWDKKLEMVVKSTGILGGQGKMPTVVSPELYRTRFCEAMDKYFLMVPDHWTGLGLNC
How it was run: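 Percent inhibition, from 12 concentrations, was derived from the product/(substrate+product) peak ratio separated by microfluidic electrophoresis, normalized to DMSO-only and enzyme-free controls. Reactions ran 3 h at room temperature: 2 nM N-terminal GST-PIKFYVE, 1 μM fluorescent PI3P in PS vesicles, […], HEPES pH 7.5, MgCl2/MnCl2.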

Structure (SMILES)	EC50 [1] [nM]	IC50 [2] [nM]
c1ccc(-c2cc(Nc3nc(N4CCOCC4)c4oc(-c5ccncc5)cc4n3)no2)cc1 [Compound 43, 4-morpholino-N-(5-phenylisoxazol-3-yl)-6-(pyridin-4-yl)furo[3,2-d]pyrimidin-2-amine]	47.5	8
Cc1cccc(-c2ccn(-c3nc(N4CCOCC4)c4oc(-c5ccncc5)cc4n3)n2)c1 [Compound 89, 4-morpholino-6-(pyridin-4-yl)-2-(3-(m-tolyl)-1H-pyrazol-1-yl)furo[3,2-d]pyrimidine]	31.5	19
Cc1cccc(-c2ccn(-c3nc(N4CCOCC4)c4oc(-c5cccnc5)cc4n3)n2)c1 [Compound 90]	20.5	7.7
COCCNC(=O)c1cc2nc(-n3ccc(-c4cccc(C)c4)n3)nc(N3CCOCC3)c2o1 [Compound 93, N-(2-methoxyethyl)-4-morpholino-2-(3-(m-tolyl)-1H-pyrazol-1-yl)furo[3,2-d]pyrimidine-6-carboxamide]	60	47.3
CCNC(=O)c1cc2nc(-n3ccc(-c4cccc(C)c4)n3)nc(N3CCOCC3)c2o1 [Compound 95, N-ethyl-4-morpholino-2-(3-(m-tolyl)-1H-pyrazol-1-yl)furo[3,2-d]pyrimidine-6-carboxamide]	94	11.8
Cc1cccc(-c2ccn(-c3nc(N4CCOCC4)c4oc(C(=O)NC5CC5)cc4n3)n2)c1 [Compound 96, N-cyclopropyl-4-morpholino-2-(3-(m-tolyl)-1H-pyrazol-1-yl)furo[3,2-d]pyrimidine-6-carboxamide]	17.5	15
Cc1cccc(-c2ccn(-c3nc(N4CCOCC4)c4oc(C(=O)NCC5CC5)cc4n3)n2)c1 [Compound 97, N-(cyclopropylmethy 1)-4-morpholino-2-(3-(m-tolyl)-1H-pyrazol-1-yl)furo[3,2-d]pyrimidine-6-carboxamide]	16.5	17
Cc1cccc(-c2ccn(-c3nc(N4CCOCC4)c4oc(C(=O)NC5COC5)cc4n3)n2)c1 [Compound 104, 4-morpholino-N-(oxetan-3-yl)-2-(3-(m-tolyl)-1H-pyrazol-1-yl)furo[3,2-d]pyrimidine-6-carboxamide]	98	41.2
Cc1cccc(-c2ccn(-c3nc(N4CCOCC4)c4oc(C(=O)NCC5COC5)cc4n3)n2)c1 [Compound 105, 4-morpholino-N-(oxetan-3-ylmethyl)-2-(3-(m-tolyl)-1H-pyrazol-1-yl)furo[3,2-d]pyrimidine-6-carboxamide]	100	32.3
Cc1cccc(-c2ccn(-c3nc(N4CCOCC4)c4oc(C(=O)NCCCCN(C)C)cc4n3)n2)c1 [Compound 108, N-(4-(dimethylamino)butyl)-4-morpholino-2-(3-(m-tolyl)-1H-pyrazol-1-yl)furo[3,2-d]pyrimidine-6-carboxamide]	53	23.3
Cc1cccc(-c2ccn(-c3nc(N4CCOCC4)c4oc(C(=O)NCCCN(C)C)cc4n3)n2)c1 [Compound 109, N-(3-(dimethylamino)propyl)-4-morpholino-2-(3-(m-tolyl)-1H-pyrazol-1-yl)furo[3,2-d]pyrimidine-6-carboxamide]	46.5	11.7
Cc1cccc(-c2cnn(-c3nc(N4CCOCC4)c4oc(C(=O)NCCCCN(C)C)cc4n3)c2)c1 [Compound 110, N-(4-(dimethylamino)butyl)-4-morpholino-2-(4-(m-tolyl)-1H-pyrazol-1-yl)furo[3,2-d]pyrimidine-6-carboxamide]	33	2.9
Cc1cccc(-c2cnn(-c3nc(N4CCOCC4)c4oc(C(=O)NCCCN(C)C)cc4n3)c2)c1 [Compound 111, N-(3-(dimethylamino)propyl)-4-morpholino-2-(4-(m-tolyl)-1H-pyrazol-1-yl)furo[3,2-d]pyrimidine-6-carboxamide]	35.5	3.1
Cc1cccc(-c2ccn(-c3nc(N4CCOCC4)c4oc(-c5ccccn5)c(C(F)(F)F)c4n3)n2)c1 [Compound 112, 4-morpholino-6-(pyridin-2-yl)-2-(3-(m-tolyl)-1H-pyrazol-1-yl)-7-(trifluoromethyl) furo[3,2-d]pyrimidine]	153	> 10000
Cc1cccc(-c2cnn(-c3nc(N4CCOCC4)c4oc(C(=O)N[C@@H](C)C5CC5)cc4n3)c2)c1 [Compound 113, (S)-N-(1-cyclopropylethyl)-4-morpholino-2-(4-(m-tolyl)-1H-pyrazol-1-yl)furo[3,2-d]pyrimidine-6-carboxamide]	16	0.2
C[C@H](NC(=O)c1cc2nc(-n3cc(-c4ccccc4)cn3)nc(N3CCOCC3)c2o1)C1CC1 [Compound 114, (S)-N-(1-cyclopropylethyl)-4-morpholino-2-(4-phenyl-1H-pyrazol-1-yl)furo[3,2-d]pyrimidine-6-carboxamide]	61	9.6
Cc1cccc(-c2cnn(-c3nc(N4CCOCC4)c4oc(C(=O)NCC5CC5)cc4n3)c2)c1 [Compound 115, N-(cyclopropylmethyl)-4-morpholino-2-(4-(m-tolyl)-1H-pyrazol-1-yl)furo[3,2-d]pyrimidine-6-carboxamide]	35.7	3.1
COCCNC(=O)c1cc2nc(-n3cc(-c4cccc(C)c4)cn3)nc(N3CCOCC3)c2o1 [Compound 117, N-(2-methoxyethyl)-4-morpholino-2-(4-(m-tolyl)-1H-pyrazol-1-yl)fur[3,2-d]pyrimidine-6-carboxamide]	74.3	37.3
Cc1cccc(-c2cnn(-c3nc(N4CCOCC4)c4oc(C(=O)NCCCS(C)(=O)=O)cc4n3)c2)c1 [Compound 119, N-(3-(methylsulfonyl)propyl)-4-morpholino-2-(4-(m-tolyl)-1H-pyrazol-1-yl)furo[3,2-d]pyrimidine-6-carboxamide]	96.5	8.2
Cc1cccc(-c2cnn(-c3nc(N4CCOCC4)c4oc(C(=O)NCCCS(=O)(=O)N(C)C)cc4n3)c2)c1 [Compound 120, N-(3-(N,N-dimethylsulfamoyl)propyl)-4-morpholino-2-(4-(m-tolyl)-1H-pyrazol-1-yl)furo[3,2-d]pyrimidine-6-carboxamide]	121	16.2
Cc1cccc(-c2cnn(-c3nc(N4CCOCC4)c4oc(C(=O)NC5CCN(C)CC5)cc4n3)c2)c1 [Compound 121, N-(1-methylpiperidin-4-yl)-4-morpholino-2-(4-(m-tolyl)-1H-pyrazol-1-yl)furo[3,2-d]pyrimidine-6-carboxamide]	21.5	1.2
[2H]C([2H])([2H])c1cccc(-c2ccn(-c3nc(N4CCOCC4)c4oc(-c5ccccn5)cc4n3)n2)c1 [Compound 217, 4-morpholino-6-(2-pyridyl)-2-[3-[3-(trideuteriomethyl)phenyl]pyrazol-1-yl]furo[3,2-d]pyrimidine]	–	2.2
Cc1cccc(-c2ccn(-c3nc(N4CCOCC4)c4oc(-c5ncco5)cc4n3)n2)c1 [Compound 218, 4-morpholino-2-[3-(m-tolyl)pyrazol-1-yl]-6-oxazol-2-yl-furo[3,2-d]pyrimidine]	–	9.1
Cc1cccc(-c2ccn(-c3nc(N4CCOCC4)c4oc(-c5cn[nH]c5)cc4n3)n2)c1 [Compound 219, 4-morpholino-2-[3-(m-tolyl)pyrazol-1-yl]-6-(1H-pyrazol-4-yl)furo[3,2-d]pyrimidine]	–	0.4
O=C(NC1CCOCC1)c1cc2nc(-n3ccc(-c4cccc(Br)c4)n3)nc(N3CCOCC3)c2o1 [Compound 220, 2-[3-(3-bromophenyl)pyrazol-1-yl]-4-morpholino-N-tetrahydropyran-4-yl-furo[3,2-d]pyrimidine-6-carboxamide]	–	16.3
COc1cccc(-c2ccn(-c3nc(N4CCOCC4)c4oc(C(=O)NC5CCOCC5)cc4n3)n2)c1 [Compound 221, 2-[3-(3-methoxyphenyl)pyrazol-1-yl]-4-morpholino-N-tetrahydropyran-4-yl-furo[3,2-d]pyrimidine-6-carboxamide]	–	3.4

Reference: patent publication US20230146395A1, “Substituted Pyrimidines and Uses Thereof” (Verge Analytics, Inc., priority 2020, published 2023)
